One series concerns mu-opioid receptor. The note with it: result in words; no data shown; cited from earlier work.
Series [1] has as its system transplanted tissue or organ; cyclosporine nephrotoxicity. As to the kind of experiment: Peptide with cyclosporine in transplant patients: organ health and nephrotoxicity (Example 7). The conditions noted are these: subjects who receive the peptide versus those who do not; predicted. Format: in vivo. An excerpt: To prevent organ or tissue rejection after transplant, patients often receive a regimen of the immunosuppressive drug cyclosporine. Cyclosporine levels are established and maintained in the subject at levels to effectively suppress the immune system. However, nephrotoxicity is a concern for these subjects, and the level of the drug in the subject's blood is monitored carefully. Cyclosporine doses are adjusted accordingly in order to not only prevent rejection, but also to deter these potentially damaging side effects. Typically, an adult transplant patient receives cyclosporine as follows: IV: 2 to 4 mg/kg/day IV infusion once a day over 4 to 6 hours, or 1 to 2 mg/kg IV infusion twice a day over 4 to 6 hours, or 2 to 4 mg/kg/day as a continuous IV infusion over 24 hours. Capsules: 8 to 12 mg/kg/day orally in 2 divided doses. Solution: 8 to 12 mg/kg orally once a day. […]
A therapeutically effective amount of an aromatic-cationic peptide or pharmaceutically acceptable salt thereof such as acetate or trifluoroacetate salt is administered to subjects prior to, during and/or after transplant as show in Table 13 above. Subjects are monitored for health and function of the transplanted tissue or organ, as well as the incidence and severity of nephrotoxicitity often seen with prolonged cyclosporine administration.

Series [2] deals with several mammalian cell types. The note with it: energy-independent manner; Zhao et al. 2003; cited from earlier work.

Square brackets hold non-standard residues; d marks the D form. Ends that are not written are not given here. Peptide text beside a SMILES is read from it.

Regarding F[dR]FK-NH2 [SS-20], the “mu-opioid receptor agonist activity” value in the series with mu-opioid receptor is “does not have mu-opioid receptor agonist activity”. For the molecule `Cc1cc(O)cc(C)c1C[C@H](NC(=O)[C@H](N)CCCNC(=N)N)C(=O)N[C@@H](CCCCN)C(=O)N[C@@H](Cc1ccccc1)C(N)=O` [PEPTIDE, D-Arg-2′6′-Dmt-Lys-Phe-NH2] (HELM PEPTIDE1{[dR].[Cc1cc(O)cc(C)c1C[C@H](N[*:1])C(=O)[*:2]].K.F.[am]}$$$$V2.0), the tolerated cyclosporine dosage result in series [1] was “able to maintain a higher and/or more consistent cyclosporine dosage for longer periods of time”. As for 2′,6′-Dmt-D-Arg-Phe-Lys-NH2 [SS-02], in series [2], the “penetration of the plasma membrane” value was “readily penetrates the plasma membrane”. Consider Tyr-D-Arg-Phe-Lys-NH2 [SS-01], for which the “mu-opioid receptor agonist activity” value in the series on mu-opioid receptor is listed as “has mu-opioid receptor agonist activity”.

Source of the values: patent US10702577B2, “Combination therapies using cyclosporine and aromatic cationic peptides” (STEALTH BIOTHERAPEUTICS CORP, priority 2010, dated 2020).
